Experimental data reported in patent US20250075337A1, “SATURATED QUATERNARY AMMONIUM COMPOUNDS, GLUTARALDEHYDE, AND TETRAKIS(HYDROXYMETHYL)PHOSPHONIUM SULFATE FOR CORROSION INHIBITION, CLEANING, AND BIOCIDAL EFFICACY IN HYDROGEN SYSTEMS” (ChampionX LLC, priority 2023, published 2025).

Assay: Bubble cell test, corrosion rate by linear polarization resistance (LPR)
Conditions: 80° C., CO2 saturated 3% NaCl brine; 100 ppm active; about 15 hours after CI injection; versus uninhibited carbon steel electrode
Procedure: Examples were conducted to assess the corrosion inhibition of a saturated alkyl diquaternary compounds of structure (IIIa) as described above using a bubble cell test to assess corrosion performance using linear polarization resistance testing. The corrosion inhibitor (CI) was evaluated without combination of any other chemistries or formulation components.
The corrosion rate was measured by Linear Polarization Resistance (LPR) techniques. The working electrode used was carbon steel (C1018 grade). The counter and reference electrodes were both 1018 carbon steel. The electrodes were all cleaned and polished prior to testing.
The test conditions included: 80° C., CO2 saturated fluids with 3% NaCl brine (100% brine) with continuous CO2 sparge, atmospheric pressure. A pre-corrosion time (i.e. with no corrosion inhibitor) was carried out for about 3 hours before 500 ppm of a 20% active chemistry in solvent blend was added. This is equivalent to 100 ppm of the active chemistry being introduced into the test cell. The inhibited corrosion rate at about 15 hours after CI chemical injection was noted and a percentage inhibition determined by comparing with the corrosion rate of a carbon steel electrode under otherwise the same conditions in the absence of chemical corrosion inhibitor after the same time of exposure to the corrosive environment.

Structure (SMILES): CCCCCCCCCCCCCCCCCC[N+](C)(C)CC(O)C[N+](CCO)(CCO)CCO (stereo not shown) [CI Structure IIIa]
- % Protection: >99%
